Source: US10508113B2, “Inhibitors of tyrosine kinase 2 mediated signaling” (AbbVie Inc., priority 2018, dated 2019)

How the values were obtained:
Jak1 = molecular target: T1, Jak1 (Homo sapiens, UniProt P23458); experiment: Jak1 (PSTAT3 TF1) alpha screen assay: inhibition of IL-6 induced phosphorylation of STAT3 in TF1 cells; type: cell-based; settings: calculated from tabulated EC50 data (Jak1 / Tyk2)
T1 construct: endogenous in cells; host or cells: TF1 cells
Outline: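 IL-6-starved TF1 cells were preincubated 30 min at 37 °C with compound (top final 25 μM, 8-point 1:5 series), then stimulated with IL-6 (100 ng/mL final) for 30 min at 37 °C. Lysates were read for pSTAT3 (Tyr705) by AlphaScreen SureFire. EC50 from percent-activity dose-response curves.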

Jak2 = molecular target: T2, Jak2 (Homo sapiens, UniProt O60674); experiment: Jak2 (PSTATS UT7) alpha screen assay: inhibition of EPO induced phosphorylation of STAT5 in UT7 cells; type: cell-based; settings: calculated from tabulated EC50 data (Jak2 / Tyk2)
T2 construct: Cell Type: UT7 cells engineered to express the erythropoietin (EPO) receptor; endogenous in cells; host or cells: UT7 cells engineered to express the EPO receptor
T2 sequence (O60674 whole entry): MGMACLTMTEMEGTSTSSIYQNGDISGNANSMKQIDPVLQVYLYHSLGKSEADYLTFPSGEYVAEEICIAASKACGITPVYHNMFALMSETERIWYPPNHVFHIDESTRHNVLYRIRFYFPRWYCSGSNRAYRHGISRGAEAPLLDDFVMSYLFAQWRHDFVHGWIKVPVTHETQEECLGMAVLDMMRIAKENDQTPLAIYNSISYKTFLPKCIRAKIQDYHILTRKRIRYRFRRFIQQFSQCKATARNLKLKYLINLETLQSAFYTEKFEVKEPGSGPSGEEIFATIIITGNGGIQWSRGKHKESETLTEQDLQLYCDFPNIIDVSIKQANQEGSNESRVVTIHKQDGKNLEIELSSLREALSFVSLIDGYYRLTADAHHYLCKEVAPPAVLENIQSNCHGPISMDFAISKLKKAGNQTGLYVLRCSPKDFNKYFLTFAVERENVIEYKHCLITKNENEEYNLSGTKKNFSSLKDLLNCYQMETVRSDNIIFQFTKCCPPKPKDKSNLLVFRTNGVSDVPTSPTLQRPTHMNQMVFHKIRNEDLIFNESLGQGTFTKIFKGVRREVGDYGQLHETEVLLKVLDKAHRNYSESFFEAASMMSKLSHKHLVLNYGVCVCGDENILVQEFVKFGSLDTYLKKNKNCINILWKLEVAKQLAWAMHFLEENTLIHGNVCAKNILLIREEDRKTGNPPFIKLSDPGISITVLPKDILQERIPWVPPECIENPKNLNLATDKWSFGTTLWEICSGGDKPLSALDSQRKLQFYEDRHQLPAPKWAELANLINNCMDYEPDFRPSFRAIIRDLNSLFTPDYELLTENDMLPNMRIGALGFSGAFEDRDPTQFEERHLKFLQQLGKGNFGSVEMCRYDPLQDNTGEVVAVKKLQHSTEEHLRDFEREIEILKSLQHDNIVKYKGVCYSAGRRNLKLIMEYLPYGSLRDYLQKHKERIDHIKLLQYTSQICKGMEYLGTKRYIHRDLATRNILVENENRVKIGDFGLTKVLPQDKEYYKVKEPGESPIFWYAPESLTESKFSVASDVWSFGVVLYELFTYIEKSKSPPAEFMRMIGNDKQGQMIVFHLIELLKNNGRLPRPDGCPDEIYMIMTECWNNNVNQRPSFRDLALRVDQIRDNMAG
Method: 3. JAK2 (PSTATS UT7) ALPHA SCREEN ASSAY
Erythropoietin (EPO) is known to transduce its signal through EPO receptor via Jak2. Activity against Jak2 was therefore measured by determining inhibition of EPO induced phosphorylation of STATS in UT7 cells. […] Materials
Cell Type: UT7 cells engineered to express the erythropoietin (EPO) receptor; Culture Medium: Dulbecco's Modified Eagle Medium (DMEM) with 2 mM L-glutamine, 10 mM hydroxyethyl piperazineethanesulfonic acid (HEPES), 10% heat-inactivated fetal bovine serum (FBS) and Stock EPO (5000U in 250 uL, need 5U/mL, so add 250 μL to 1L of media); Assay Medium: 5% FBS ultra-low IgG and 1% Pen/Strep. Compounds were made-up in 100% dimethyl sulfoxide (DMSO).
Day One - Starve Cells: 4 Flasks for one 384 plate (spin down @1000 rpm for 10 minutes and add DMEM with no EPO).
Day Two—Compound Dilutions:
i. Manual 8-point 1:3 dilution curve: 5 mM top concentration dispensed in row A of a
Corning 96-well polypropylene plate, columns 2-12. DMSO dispensed in position A01 for low and high controls. Compounds were serially diluted 1:3 by adding 10 μL stock to 20 μL DMSO down the plate.
ii. Media dilution of compounds: Serially diluted compounds were diluted 1:50 in assay medium by adding 4 μL compound to 196 μL assay medium in a Corning 96-well polypropylene plate.
384 Alpha Screen Plate Set up: Transferred 2.5 μL/well of compound solution from last dilution plate. Replicates were vertical, so that one column of the 96-well dilution plate goes into one column on the 384-well plate twice. Plated 1×10^5 starved cells/well in 5μL. Washed cells in 10 mL Hank's balanced salt solution (HBSS) after spinning down. Counted live cells. Multiplied by dilution factor and 10,000 (constant) to get the concentration of viable cells. Multiplied by volume of cells to get the total number of live cells. Divided by 20,000,000 cells/mL to get the volume needed. Subtracted the original volume to get the volume to be added to get the final concentration of cells. Mixed in reservoir if needed, ensuring that all cell clumps are broken up (if not broken up, they were removed from the suspension). Cells were plated at 5 μL/well in gray Alpha Screen 384-well plate. Spinned the plate to bring the contents to the bottom of the wells at 400 rpm for 2 minutes. Top final compound concentration: 25 μM. Sealed with adhesive and tapped gently. Incubated cells at 37° C. for 30 minutes.
c. EPO Stimulation (p STATS)
Once cells were in incubator, immediately prepared working stock of EPO (1 nM final assay concentration). EPO stock=2860 nM of sterile filtered liquid in sodium citrate buffer (1 liter of ddH2O containing 5.9 g of sodium citrate, 5.8 g of sodium chloride and 0.06 g of citric acid). Diluted 1:22.72 by adding 4.44 stock EPO to 95.6 pi assay media, then dilute again […] depending on how much volume is needed for the assay plates. Used assay medium to bring to volume. Added 2.5 μL EPO to each well. Spinned plate at 400 rpm briefly; tap the plate gently before covering with an adhesive seal. Cells were incubated at 37° C. for 20 minutes.
Added 2.5 μL of 5X Lysis buffer to each well. Spinned plate at 400 rpm briefly. Incubated at room temperature (on orbital shaker) for 10 minutes.
e. Protein (A) Acceptor Beads Preparation: (Light sensitive)
Phosphorylated Signal Transducer and Activator of Transcription 5 (pSTAT5) was quantified using the PerkinElmer SureFire pSTATS (Tyrosine 694/699) Assay. Calculated total volume needed (wells×15 μL×30%). Divided total volume by 5 to get volume of activation buffer. Subtracted volume of activation buffer from total volume and divide by 40 to get volume of acceptor beads (add last). Total volume - acceptor bead volume - activation buffer to get volume of reaction buffer. Added 15 μL to each well and covered with foil. Shaked on orbital shaker for 2 hours at 500 rpm.
f. Streptavidin Donor Beads Preparation:
Calculated total volume needed (wells×6μL×30%). […]

T1 sequence (P23458 whole entry): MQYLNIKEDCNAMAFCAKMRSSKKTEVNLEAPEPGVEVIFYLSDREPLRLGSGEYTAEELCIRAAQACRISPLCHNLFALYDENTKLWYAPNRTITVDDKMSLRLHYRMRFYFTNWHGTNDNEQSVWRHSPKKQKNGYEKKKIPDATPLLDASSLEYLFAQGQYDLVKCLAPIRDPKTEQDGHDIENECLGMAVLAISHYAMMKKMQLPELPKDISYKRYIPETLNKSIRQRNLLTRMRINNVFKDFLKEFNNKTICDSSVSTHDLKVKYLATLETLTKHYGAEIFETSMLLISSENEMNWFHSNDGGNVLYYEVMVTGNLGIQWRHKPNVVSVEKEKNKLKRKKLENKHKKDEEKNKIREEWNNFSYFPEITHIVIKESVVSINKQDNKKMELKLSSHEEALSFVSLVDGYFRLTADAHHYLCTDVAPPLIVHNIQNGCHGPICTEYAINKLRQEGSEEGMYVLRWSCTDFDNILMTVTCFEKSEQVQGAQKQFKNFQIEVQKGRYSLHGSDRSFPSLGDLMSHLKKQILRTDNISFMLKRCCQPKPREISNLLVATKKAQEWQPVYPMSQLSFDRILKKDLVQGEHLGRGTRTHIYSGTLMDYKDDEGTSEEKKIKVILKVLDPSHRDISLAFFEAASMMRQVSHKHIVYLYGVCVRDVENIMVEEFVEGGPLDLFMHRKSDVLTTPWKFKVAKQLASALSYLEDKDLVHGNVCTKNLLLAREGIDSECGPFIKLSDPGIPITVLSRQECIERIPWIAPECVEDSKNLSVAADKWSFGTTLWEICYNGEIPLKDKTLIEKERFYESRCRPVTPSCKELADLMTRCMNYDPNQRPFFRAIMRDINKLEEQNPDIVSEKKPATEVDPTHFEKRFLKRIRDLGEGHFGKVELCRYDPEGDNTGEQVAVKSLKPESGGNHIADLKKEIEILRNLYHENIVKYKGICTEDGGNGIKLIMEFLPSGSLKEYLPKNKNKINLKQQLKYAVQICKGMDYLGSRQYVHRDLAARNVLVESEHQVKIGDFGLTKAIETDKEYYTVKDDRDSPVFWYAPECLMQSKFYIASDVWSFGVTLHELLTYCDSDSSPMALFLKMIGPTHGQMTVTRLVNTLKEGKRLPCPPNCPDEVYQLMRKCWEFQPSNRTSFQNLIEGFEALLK

| Compound | Tyk2 selectivity over Jak1 (Jak1) | Tyk2 selectivity over Jak2 (Jak2) |
| --- | --- | --- |
| CO[C@@]1(c2cc(O[C@@H](C)CCO)cc(-c3cn(C)c4cnc(NC(C)=O)cc34)n2)CCOC1 [Example 14.4, N-(3-(4-(((S)-4-hydroxybutan-2-yl)oxy)-6-((R)-3-methoxytetrahydrofuran-3-yl)pyridin-2-yl)-1-methyl-1H-pyrrolo[2,3-c]pyridin-5-yl)acetamide] | 470-fold | >187-fold |
| CO[C@@]1(c2cc(OC[C@H](C)O)cc(-c3cn(C)c4cnc(NC(C)=O)cc34)n2)CCOC1 [Example 14.5, N-(3-(4-((S)-2-hydroxypropoxy)-6-((R)-3-methoxytetrahydrofuran-3-yl)pyridin-2-yl)-1-methyl-1H-pyrrolo[2,3-c]pyridin-5-yl)acetamide] | 486-fold | >171-fold |
| CO[C@@]1(c2cc(OC[C@@H](C)O)cc(-c3cn(C)c4cnc(NC(C)=O)cc34)n2)CCOC1 [Example 14.6, N-(3-(4-((R)-2-hydroxypropoxy)-6-((R)-3-methoxytetrahydrofuran-3-yl)pyridin-2-yl)-1-methyl-1H-pyrrolo[2,3-c]pyridin-5-yl)acetamide] | 563-fold | >287-fold |
| CO[C@@]1(c2cccc(-c3cn([C@H]4C[C@H](C#N)C4)c4cnc(NC(C)=O)cc34)n2)CCOC1 [Example 17, N-(1-((trans)-3-Cyanocyclobutyl)-3-(6-((R)-3-methoxytetrahydrofuran-3-yl)pyridin-2-yl)-1H-pyrrolo[2,3-c]pyridin-5-yl)acetamide] | 871-fold | >806-fold |
| CO[C@@]1(c2cc(C(F)F)cc(-c3cn([C@H]4C[C@H](C#N)C4)c4cnc(NC(C)=O)cc34)n2)CCOC1 [Example 17.2, N-(1-((trans)-3-cyanocyclobutyl)-3-(4-(difluoromethyl)-6-((R)-3-methoxytetrahydrofuran-3-yl)pyridin-2-yl)-1H-pyrrolo[2,3-c]pyridin-5-yl)acetamide] | 243-fold | >174-fold |
| CC(=O)Nc1cc2c(-c3cccc([C@]4(CO)CCOC4)n3)cn(C)c2cn1 [Example 21, (S)-N-(3-(6-(3-(Hydroxymethyl)tetrahydrofuran-3-yl)pyridin-2-yl)-1-methyl-1H-pyrrolo[2,3-c]pyridin-5-yl)acetamide] | 35-fold | >313-fold |
| COCc1cc(-c2cn(C)c3cnc(NC(C)=O)cc23)nc([C@]2(CO)CCOC2)c1 [Example 22, (S)-N-(3-(6-(3-(Hydroxymethyl)tetrahydrofuran-3-yl)-4-(methoxymethyl)pyridin-2-yl)-1-methyl-1H-pyrrolo[2,3-c]pyridin-5-yl)acetamide] | 72-fold | >171-fold |
| CO[C@@]1(c2cc(OC(F)F)cc(-c3cn(C)c4cnc(NC(C)=O)cc34)n2)CCOC1 [Example 22.2, (R)-N-(3-(4-(difluoromethoxy)-6-(3-methoxytetrahydrofuran-3-yl)pyridin-2-yl)-1-methyl-1H-pyrrolo[2,3-c]pyridin-5-yl)acetamide] | 393-fold | >281-fold |
| CC(=O)Nc1cc2c(-c3cc(C(F)F)cc([C@]4(CO)CCOC4)n3)cn(C)c2cn1 [Example 22.5, (S)-N-(3-(4-(difluoromethyl)-6-(3-(hydroxymethyl)tetrahydrofuran-3-yl)pyridin-2-yl)-1-methyl-1H-pyrrolo[2,3-c]pyridin-5-yl)acetamide] | 98-fold | >347-fold |
| COc1cc(-c2cn(C)c3cnc(NC(C)=O)cc23)nc([C@]2(CO)CCOC2)c1 [Example 22.6, (S)-N-(3-(6-(3-(hydroxymethyl)tetrahydrofuran-3-yl)-4-methoxypyridin-2-yl)-1-methyl-1H-pyrrolo[2,3-c]pyridin-5-yl)acetamide] | 85-fold | >192-fold |
| COCCOc1cc(-c2cn(C)c3cnc(NC(C)=O)cc23)nc([C@]2(CO)CCOC2)c1 [Example 22.8, (S)-N-(3-(6-(3-(hydroxymethyl)tetrahydrofuran-3-yl)-4-(2-methoxyethoxy)pyridin-2-yl)-1-methyl-1H-pyrrolo[2,3-c]pyridin-5-yl)acetamide] | 103-fold | >136-fold |
| CO[C@H](C)COc1cc(-c2cn(C)c3cnc(NC(C)=O)cc23)nc([C@]2(OC)CCOC2)c1 [Example 22.10, N-(3-(4-((R)-2-methoxypropoxy)-6-((R)-3-methoxytetrahydrofuran-3-yl)pyridin-2-yl)-1-methyl-1H-pyrrolo[2,3-c]pyridin-5-yl)acetamide] | >272-fold | >272-fold |
| COCc1cc(-c2cn(C)c3cnc(NC(=O)CO)cc23)nc([C@]2(OC)CCOC2)c1 [Example 24, (R)-2-hydroxy-N-(3-(4-(methoxymethyl)-6-(3-methoxytetrahydrofuran-3-yl)pyridin-2-yl)-1-methyl-1H-pyrrolo[2,3-c]pyridin-5-yl)acetamide] | >1087-fold | >272-fold |
| COCCOc1cc(-c2cn(C)c3cnc(NC(C)=O)cc23)nc([C@]2(OC)CCOC2)c1 [Example 25, (R)-N-(3-(4-(2-methoxyethoxy)-6-(3-methoxytetrahydrofuran-3-yl)pyridin-2-yl)-1-methyl-1H-pyrrolo[2,3-c]pyridin-5-yl)acetamide] | 1960-fold | >1000-fold |
| CO[C@@]1(c2cc(C(F)F)cc(-c3cn(C)c4cnc(NC(=O)CO)cc34)n2)CCOC1 [Example 26, (R)-N-(3-(4-(difluoromethyl)-6-(3-methoxytetrahydrofuran-3-yl)pyridin-2-yl)-1-methyl-1H-pyrrolo[2,3-c]pyridin-5-yl)-2-hydroxyacetamide] | >500-fold | >500-fold |
